Laboratory results: patent US8987201B2, “Black bear parathyroid hormone and methods of using black bear parathyroid hormone” (Michigan Technological University, priority 2009, dated 2015)
Marks after values point to notes of the source that are not given here.

Columns and labels:
Male Swiss-Webster mice [1] = test: Trabecular bone structure and mineralization in the proximal tibia (micro-computed tomography); assay type: in vivo, mouse; conditions: PTH 1-84 study: 12 wk old mice, 8 weeks, proximal tibia, normalized by body mass
Excerpt: (§1) All handling procedures and experiments were approved by the Michigan Technological University Institutional Animal Care and Use Committees. Male Swiss-Webster mice were obtained from a commercial breeder (Harlan, Indianapolis, Ind.). All animals were maintained on a 12-h light/12-h dark cycle, and were permitted free access to water and food containing 0.95% calcium (Purina Rodent Diet #5001).
(§2) In the first experiment, 11 wk old mice received daily (5 days/week) subcutaneous injections of 2.5 nmol/kg PTH 1-34 (hPTH 1-34 or bbPTH 1-34) or acidic saline vehicle (0.15 M NaCl+0.001 N HCl) for 8 weeks (n=10 mice/group). In the second experiment, 12 wk old mice received daily (5 days/week) subcutaneous injections of 2.5 nmol/kg PTH 1-84 (hPTH 1-84 or bbPTH 1-84) or acidic saline vehicle for 8 weeks (n=10 mice/group). All PTH- and vehicle-treated animals received subcutaneous injections of calcein at a dosage of 10 mg/kg on days 12 and 3 before death to label mineralizing bone surfaces. Twenty-four hours following the last treatment injection, mice were sacrificed by carbon dioxide asphyxiation. Right femurs were fixed in 10% neutral buffered formalin. Left femurs were wrapped in 0.15M saline soaked gauze and stored at −20 deg C. Left tibias were stored in 70% ethanol at 4 deg C.
Trabecular bone architecture and mineralization were evaluated in the left proximal tibial metaphysis (0.7 mm distal to the growth plate) using micro-computed tomography. Tibias from experiment 1 were scanned on a μCT35 scanner (Scanco Medical AG, Basserdorf, Switzerland) at 3.5 μm (high) resolution. Tibias from experiment 2 were scanned on a μCT40 scanner (Scanco Medical AG, Basserdorf, Switzerland) at 7 μm (high) resolution. Bones were scanned in 70% ethanol. Trabecular bone volume fraction (BV/TV, %), trabecular number (Tb.N, mm^−1), trabecular thickness (Tb.Th, m), trabecular separation (Tb.Sp, m), trabecular apparent mineral density (App.Mn.Dn, mgHA/cm^3) and trabecular tissue mineral density (Mat.Mn.Dn, mgHA/cm^3) were computed using the manufacturer's software.
(§3) All bone geometrical, architectural, and mineral properties were normalized by body mass to account for potential variation in animal size (31-33). Trabecular bone properties quantified by micro-computed tomography were compared by ANOVA between vehicle, bear, and human PTH-treated mice within each study (PTH 1-34 or PTH 1-84). The microCT parameters were not directly compared between the PTH 1-34 and PTH 1-84 studies because analyses were conducted on different microCT machines. For all other bone properties, all six experimental groups (from both the PTH 1-34 and PTH 1-84 studies) were compared with ANOVA and Fisher's PLSD. A significance of p<0.05 was used for all comparisons.

Male Swiss-Webster mice [2] = test: Cortical bone mineral content (ash fraction) and geometrical properties of the femur; assay type: in vivo, mouse; conditions: femoral midshaft, 2.5 nmol/kg s.c., 8 weeks, normalized by body mass, SD in parentheses
Excerpt: as §1, §2
(§4) Following the bending test, the left femoral diaphyses were ashed in a furnace to determine mineral content (ash fraction). Right femoral diaphyses were embedded in methyl methacrylate and sectioned with a diamond saw to expose the midshaft cross-section. Images of the midshaft cross-sections were captured using a digital camera (Spot Insight QE, Diagnostic Instruments Inc., Sterling Heights, Mich.), and Scion Image analysis software (Scion Corporation, Frederick, Md.) was used to calculate the periosteal area (Ps.Ar), cortical area (Ct.Ar), and endosteal area (Es.Ar) for each sample. Cortical bone thickness (Ct.Th) was calculated in 0.1 mm increments for each anatomical quadrant and for the entire cross-section using image analysis software (Bioquant Osteo, Nashville, Tenn.). Thin sections from the midshaft of the right femur were ground to a thickness of 50 μm and mounted on glass slides. Images of calcein labels were captured at 100× magnification and periosteal and endosteal mineral apposition rates (Ps.MAR and Es.MAR, respectively) and mineralizing surfaces (Ps.MS/BS and Es.MS/MS) were quantified (Bioquant) for each femur.
as §3

Male Swiss-Webster mice [3] = test: Cortical bone dynamic histomorphometry in the femur (calcein labels); assay type: in vivo, mouse; conditions: femoral midshaft, 2.5 nmol/kg s.c., 8 weeks, SD in parentheses
Excerpt: as §1, §2, §4, §3

rats = conditions: cited from earlier work
procollagen-1 mRNA = conditions: Nasu et al., 1998; cited from earlier work
MC3T3 subclone 4 cells = test: PTH attenuation of serum-starvation induced caspase-3/7 activity; assay type: cell-based, mouse; conditions: all concentrations pooled; bbPTH 1-34 vs hPTH 1-34 p=0.006, vs either PTH 1-84 p≦0.018; bbPTH 1-84 vs hPTH 1-84 p=0.090
Description: MC3T3 subclone 4 cells (ATCC, CRL-2593) were maintained in standard culture media (89% alpha-minimum essential media, 1% penicillin/streptomycin, and 10% FBS) at 37° C. in 5% CO2. Cells were not used beyond passage 30.
MC3T3 cells were seeded at a density of 20,000 cells/well in 96-well plates and allowed to attach overnight. Culture media was then aspirated and replaced with 100 μl of culture media containing 10% FBS and either vehicle (PBS) or PTH (10-100 nM) for one hour, after which media was aspirated and cells were washed with PBS to remove residual serum. To induce apoptosis, cells were incubated in control or serum-free media for 6 hours. Replacement media contained 89% alpha-minimum essential media, 1% penicillin/streptomycin, and either 10% FBS (control media) or 0% FBS (starvation media). After starvation, media was aspirated, cells were washed with PBS, and 50 μl of fresh PBS was added to each well. Caspase-3/7 activity was determined by cleavage of a DEVD substrate (Caspase-Glo 3/7 Assay, #G8093, Promega Corporation). Measured luminescence values were fit to a standard curve prepared with known concentrations of recombinant human caspase-3 (#SE-169, BIOMOL Research Laboratories Inc.). Five wells of each treatment were run per 96-well plate, and procedures were repeated on a minimum of 10 plates. […]

[4] = test system: human fetal osteoblasts (hFOB); test: Serum starvation cell death in human fetal osteoblasts (trypan blue); assay type: cell-based; conditions: 100 nM for 1 hour before serum starvation for 24 hours, preliminary studies, p<0.0001
Description: All PTH peptides used in the current study attenuated apoptotic signaling induced by serum starvation in vitro (FIG. 19). bbPTH 1-34 reduced apoptotic signaling in pre-osteoblastic cells more than human PTH (FIG. 19). Recently, we found similar results with preliminary studies in human fetal osteoblasts (hFOB). Serum starvation for 24 hours increased cell death in hFOB (confirmed via trypan blue staining), but pretreatment of hFOB cells with 100 nM PTH 1-34 or 1-84 for 1 hour before starvation reduced percent cell death (percentage change in cell death compared to vehicle pretreatment, hPTH 1-34: −18%, bbPTH 1-34: −25%, hPTH 1-84: −17%, bbPTH 1-84: −21%; p<0.0001; data not shown). […] However, although bbPTH 1-84 was less anti-apoptotic than bbPTH 1-34 and hPTH 1-34 in vitro (FIG. 19) it caused the greatest increases in cortical and trabecular bone mass in the in vivo studies (Table 1, Table 2).

[5] = test system: ovariectomized (OVX) Sprague-Dawley rats; test: In vivo effects of human PTH1-84 and bear PTH1-84 in ovariectomized rats; design: species or system rat; conditions: 2.5 nmol/kg s.c., eight weeks
Description: Thirty female, 2.5-month old Sprague-Dawley rats were ovariectomized (OVX) at the commercial breeding facility The OVX animals were randomly assigned into 3 groups of 10 animals per group for further experiments.
Six weeks after the OVX procedure, the rats were injected subcutaneously for an eight-week period (daily for five days per week) with vehicle (saline) or 2.5 nmol/kg bear or human PTH1-84. Animals were euthanized 24 hours after the last injection. Samples were obtained from the euthanized animals for further analysis.
Femur bending strength and proximal tibia trabecular architecture were investigated as described in Example 12.

[6] = test system: men and women with age-related osteoporosis; conditions: 20-30% of cortical and cancellous bone lost; cited from earlier work

## human PTH1-84 [hPTH 1-84]
Male Swiss-Webster mice [1]; 2.5 nmol/kg s.c. daily 5 days/week
  BV/TV: 1.34 %/kg
Male Swiss-Webster mice [1]; 2.5 nmol/kg s.c.
  App. Mn. Dn: 2513 ^b mgHA/(cm^3*kg)
  Mat. Mn. Dn.: 29810 mgHA/(cm^3*kg)
  Tb. N: 98.7 1/mm*kg
  Tb. Sp: 9.57 mm/kg
  Tb. Th: 1.26 mm/kg
Male Swiss-Webster mice [2]
  Ct.Ar: 29.0 (3.7) mm^2/kg
  Ct.Th: 3.41 (0.59)^a mm/kg
  Es.Ar: 25.6 (3.3) mm^2/kg
  Ps.Ar: 54.6 (4.4)^b,c mm^2/kg
Male Swiss-Webster mice [3]
  Endosteal MAR: 0.62 ( ).39)
  Endosteal MS/BS: 32.1 (19.4)
  Periosteal MAR: 0.60 (0.40)
  Periosteal MS/BS: 20.2 (16.7)
rats; rat, in vivo
  rate of carcinogenicity compared to human PTH 1-34: lower rate of carcinogenicity
procollagen-1 mRNA
  production of procollagen-1 mRNA: does not
MC3T3 subclone 4 cells
  caspase-3/7 activity, comparison between peptide groups: lower levels of apoptosis
[4]
  percentage change in cell death compared to vehicle pretreatment: −17%
[5]
  bone volume fraction / trabecular bone volume: equivalently increase

## ALX1-11: recombinant human PTH 1-84 (NPS Pharmaceuticals), under consideration for approval by the FDA
rats; long-term usage
  osteosarcoma in rats: generates osteosarcoma
[6]
  bone recovered during the suggested treatment regimen: 8%
